Assay results reported in ChEMBL document CHEMBL1914426, “Phospshoinositide 3-kinase (PI3K)/mammalian target of rapamycin (mTOR) dual inhibitors: discovery and structure-activity relationships of a series of quinoline and quinoxaline derivatives” (J Med Chem, 2011).

Columns and labels:
[1] = target: T1, Phosphatidylinositol 4,5-bisphosphate 3-kinase catalytic subunit alpha isoform (Homo sapiens, UniProt P42336)
[2] = target: T1, Phosphatidylinositol 4,5-bisphosphate 3-kinase catalytic subunit alpha isoform; remark: listed apart in the source
[3] = target: Phosphatidylinositol 4,5-bisphosphate 3-kinase catalytic subunit gamma isoform (Homo sapiens, UniProt P48736); design: species or system Sf9
Sequence of Phosphatidylinositol 4,5-bisphosphate 3-kinase catalytic subunit gamma isoform (P48736 whole entry, canonical isoform): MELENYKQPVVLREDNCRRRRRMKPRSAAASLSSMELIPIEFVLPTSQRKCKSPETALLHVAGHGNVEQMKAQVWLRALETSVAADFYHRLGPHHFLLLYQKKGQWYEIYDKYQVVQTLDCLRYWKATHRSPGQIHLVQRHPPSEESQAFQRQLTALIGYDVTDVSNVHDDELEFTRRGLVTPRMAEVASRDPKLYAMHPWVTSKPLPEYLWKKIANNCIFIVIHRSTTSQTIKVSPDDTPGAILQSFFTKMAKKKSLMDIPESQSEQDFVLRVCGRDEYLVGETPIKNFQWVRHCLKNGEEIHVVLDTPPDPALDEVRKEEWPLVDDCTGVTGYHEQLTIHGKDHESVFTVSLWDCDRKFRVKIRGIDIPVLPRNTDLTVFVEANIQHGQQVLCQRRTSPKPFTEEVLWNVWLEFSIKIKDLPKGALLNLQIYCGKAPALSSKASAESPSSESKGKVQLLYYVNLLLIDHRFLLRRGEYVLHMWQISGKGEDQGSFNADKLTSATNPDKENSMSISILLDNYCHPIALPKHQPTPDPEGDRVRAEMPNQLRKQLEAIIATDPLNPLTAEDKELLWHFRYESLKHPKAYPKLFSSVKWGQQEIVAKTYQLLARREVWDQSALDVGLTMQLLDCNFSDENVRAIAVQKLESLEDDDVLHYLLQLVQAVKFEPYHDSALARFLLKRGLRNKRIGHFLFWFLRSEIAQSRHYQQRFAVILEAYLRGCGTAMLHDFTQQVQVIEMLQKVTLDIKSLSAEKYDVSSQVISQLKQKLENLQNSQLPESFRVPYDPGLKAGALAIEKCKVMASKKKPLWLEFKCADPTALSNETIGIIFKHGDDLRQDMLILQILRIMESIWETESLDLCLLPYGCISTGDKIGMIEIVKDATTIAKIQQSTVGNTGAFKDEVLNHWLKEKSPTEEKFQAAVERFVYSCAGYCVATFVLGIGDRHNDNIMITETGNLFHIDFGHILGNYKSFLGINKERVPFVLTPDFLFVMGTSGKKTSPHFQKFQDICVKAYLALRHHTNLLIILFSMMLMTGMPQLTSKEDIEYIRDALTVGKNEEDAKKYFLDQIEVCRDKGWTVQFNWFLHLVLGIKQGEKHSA

[4] = target: Phosphatidylinositol 4,5-bisphosphate 3-kinase catalytic subunit beta isoform (Homo sapiens, UniProt P42338)
Sequence of Phosphatidylinositol 4,5-bisphosphate 3-kinase catalytic subunit beta isoform (P42338 whole entry, canonical isoform): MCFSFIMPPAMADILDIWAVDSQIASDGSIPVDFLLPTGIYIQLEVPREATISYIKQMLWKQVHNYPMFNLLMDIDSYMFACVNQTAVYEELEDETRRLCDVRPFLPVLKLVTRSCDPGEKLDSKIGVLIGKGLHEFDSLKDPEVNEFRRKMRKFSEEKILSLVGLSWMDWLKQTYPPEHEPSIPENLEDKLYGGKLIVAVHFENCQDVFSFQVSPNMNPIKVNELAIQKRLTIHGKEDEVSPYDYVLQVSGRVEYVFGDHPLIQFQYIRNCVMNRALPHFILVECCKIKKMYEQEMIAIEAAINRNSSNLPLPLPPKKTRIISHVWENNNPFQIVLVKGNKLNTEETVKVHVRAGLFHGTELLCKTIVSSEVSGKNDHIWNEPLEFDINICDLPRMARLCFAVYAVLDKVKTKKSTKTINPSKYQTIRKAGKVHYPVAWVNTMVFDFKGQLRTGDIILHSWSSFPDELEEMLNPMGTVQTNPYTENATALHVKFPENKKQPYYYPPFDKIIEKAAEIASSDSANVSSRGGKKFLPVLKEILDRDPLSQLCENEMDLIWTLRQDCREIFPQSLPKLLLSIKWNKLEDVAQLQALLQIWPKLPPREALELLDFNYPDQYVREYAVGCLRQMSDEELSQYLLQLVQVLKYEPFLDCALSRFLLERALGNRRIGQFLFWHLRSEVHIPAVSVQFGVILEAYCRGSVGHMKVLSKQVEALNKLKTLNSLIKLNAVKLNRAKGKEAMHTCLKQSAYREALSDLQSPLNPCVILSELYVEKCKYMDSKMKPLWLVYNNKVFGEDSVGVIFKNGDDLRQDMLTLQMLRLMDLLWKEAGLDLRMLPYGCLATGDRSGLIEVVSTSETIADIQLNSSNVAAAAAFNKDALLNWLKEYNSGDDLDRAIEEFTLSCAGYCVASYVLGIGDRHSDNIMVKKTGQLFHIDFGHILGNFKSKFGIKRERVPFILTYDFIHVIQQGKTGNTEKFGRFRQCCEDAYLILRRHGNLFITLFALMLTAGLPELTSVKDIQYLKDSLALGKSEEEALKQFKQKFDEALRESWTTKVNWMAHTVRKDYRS

[5] = target: T2, Phosphatidylinositol 4,5-bisphosphate 3-kinase catalytic subunit delta isoform (Homo sapiens, UniProt O00329)
T2 sequence (O00329 whole entry): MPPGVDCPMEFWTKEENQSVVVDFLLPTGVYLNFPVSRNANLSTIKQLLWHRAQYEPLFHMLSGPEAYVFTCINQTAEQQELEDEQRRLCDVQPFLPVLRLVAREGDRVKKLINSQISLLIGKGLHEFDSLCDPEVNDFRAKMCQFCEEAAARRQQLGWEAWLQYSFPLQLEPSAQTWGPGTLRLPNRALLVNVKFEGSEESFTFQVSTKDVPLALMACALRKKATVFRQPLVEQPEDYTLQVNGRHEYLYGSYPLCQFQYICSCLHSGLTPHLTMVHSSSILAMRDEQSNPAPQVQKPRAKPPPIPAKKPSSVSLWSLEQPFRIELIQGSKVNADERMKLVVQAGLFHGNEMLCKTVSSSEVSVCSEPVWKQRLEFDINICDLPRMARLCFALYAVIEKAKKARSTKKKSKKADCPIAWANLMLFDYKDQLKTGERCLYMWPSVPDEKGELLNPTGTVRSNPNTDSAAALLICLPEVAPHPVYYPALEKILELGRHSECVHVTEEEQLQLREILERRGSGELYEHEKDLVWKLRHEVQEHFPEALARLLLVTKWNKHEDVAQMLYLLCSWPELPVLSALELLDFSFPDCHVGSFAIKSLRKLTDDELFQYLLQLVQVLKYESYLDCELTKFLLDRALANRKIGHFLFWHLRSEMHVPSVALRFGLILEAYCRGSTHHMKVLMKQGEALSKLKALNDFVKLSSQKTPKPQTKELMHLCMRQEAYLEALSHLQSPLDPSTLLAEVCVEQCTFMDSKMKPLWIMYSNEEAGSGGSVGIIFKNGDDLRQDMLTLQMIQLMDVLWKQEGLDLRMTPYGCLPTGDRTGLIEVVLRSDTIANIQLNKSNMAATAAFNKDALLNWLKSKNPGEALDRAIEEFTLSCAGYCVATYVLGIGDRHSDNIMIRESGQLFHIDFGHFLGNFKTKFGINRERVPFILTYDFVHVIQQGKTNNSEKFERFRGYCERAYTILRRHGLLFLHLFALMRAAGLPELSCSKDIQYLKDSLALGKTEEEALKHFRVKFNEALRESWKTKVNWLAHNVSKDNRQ

Rattus norvegicus = species on record: Rattus norvegicus; settings: in vivo, iv, 1 mg/kg
Description: Hepatic blood flow in Sprague-Dawley rat 1 mg/kg, iv

in vitro [6] = settings: human, liver microsomes
Description: Clearance in human liver microsomes assessed as compound remaining at 1 uM after 30 mins

in vitro [7] = settings: rat, liver microsomes
Description: Clearance in rat liver microsomes assessed as compound remaining at 1 uM after 30 mins

[8] = Oral bioavailability in Sprague-Dawley rat at 1 mg/kg; format: ADME, organism-based; settings: in vivo
[9] = AUC in Sprague-Dawley rat at 1 mg/kg, po; format: ADME, organism-based; design: dose 1 mg/kg, route oral; settings: plasma
[10] = target: Phosphatidylinositol 3-kinase catalytic subunit type 3 (Homo sapiens, UniProt Q8NEB9)
Sequence of Phosphatidylinositol 3-kinase catalytic subunit type 3 (Q8NEB9 whole entry): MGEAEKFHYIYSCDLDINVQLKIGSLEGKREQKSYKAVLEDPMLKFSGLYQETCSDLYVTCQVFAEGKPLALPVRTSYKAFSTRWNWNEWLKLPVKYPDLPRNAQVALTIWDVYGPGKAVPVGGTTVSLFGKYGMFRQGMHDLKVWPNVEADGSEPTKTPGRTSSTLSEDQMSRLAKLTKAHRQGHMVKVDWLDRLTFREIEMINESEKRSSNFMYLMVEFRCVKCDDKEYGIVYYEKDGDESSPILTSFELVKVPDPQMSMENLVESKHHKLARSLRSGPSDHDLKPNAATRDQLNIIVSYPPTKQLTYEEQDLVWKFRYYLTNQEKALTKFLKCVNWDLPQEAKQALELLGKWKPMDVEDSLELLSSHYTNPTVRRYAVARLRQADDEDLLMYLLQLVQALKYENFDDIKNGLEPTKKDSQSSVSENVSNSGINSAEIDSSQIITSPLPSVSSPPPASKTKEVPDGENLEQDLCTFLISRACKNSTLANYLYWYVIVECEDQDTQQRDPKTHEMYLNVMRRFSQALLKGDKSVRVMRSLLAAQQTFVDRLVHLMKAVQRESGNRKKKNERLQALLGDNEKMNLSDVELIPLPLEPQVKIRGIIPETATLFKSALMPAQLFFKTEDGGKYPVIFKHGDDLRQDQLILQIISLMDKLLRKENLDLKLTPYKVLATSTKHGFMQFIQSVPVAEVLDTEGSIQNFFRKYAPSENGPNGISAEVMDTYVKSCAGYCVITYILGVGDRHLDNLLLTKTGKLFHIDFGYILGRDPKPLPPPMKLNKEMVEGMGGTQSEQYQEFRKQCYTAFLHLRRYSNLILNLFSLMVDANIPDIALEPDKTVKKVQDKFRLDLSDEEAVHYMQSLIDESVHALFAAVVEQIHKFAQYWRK
Description: Inhibition of human VPS34 assessed as ADP formation using ATP by fluorescence-based immunoassay

in vivo [11] = settings: Sprague-Dawley, rat, iv, 1 mg/kg
Description: Clearance in Sprague-Dawley rat at 1 mg/kg, iv

in vivo [12] = settings: Sprague-Dawley, rat, iv, 1 mg/kg; remark: listed apart in the source
Description: Volume of distribution at steady-state in Sprague-Dawley rat at 1 mg/kg, iv

in vivo [13] = settings: Sprague-Dawley, rat, iv, 1 mg/kg; remark: listed apart in the source
Description: Mean residence time in Sprague-Dawley rat at 1 mg/kg, iv

in vivo [14] = settings: nude CD1, mouse, plasma, po, 0.3 mg/kg
Description: Plasma concentration in nude CD1 mouse at 0.3 mg/kg, po measured after 3 hrs

in vivo [15] = settings: nude CD1, mouse, plasma, po, 1 mg/kg
Description: Plasma concentration in nude CD1 mouse at 1 mg/kg, po measured after 3 hrs

in vivo [16] = settings: nude CD1, mouse, plasma, po, 3 mg/kg
Description: Plasma concentration in nude CD1 mouse at 3 mg/kg, po measured after 3 hrs

Mus musculus [17] = species on record: Mus musculus; experiment: animal or person; settings: CD1, po, 3 h, read-out: INH
Mus musculus [18] = species on record: Mus musculus; experiment: animal or person; settings: CD1, po, 3 h, read-out: INH; remark: listed apart in the source
Mus musculus [19] = species on record: Mus musculus; experiment: animal or person; settings: CD1, po, 3 h, read-out: INH; remark: listed apart in the source
[20] = target: Serine/threonine-protein kinase mTOR (Homo sapiens, UniProt P42345)
Description: Inhibition of mTOR using GFP-tagged 4E-BP1 after 1 hr by spectrophotometric analysis

Mus musculus [21] = experiment: Inhibition of PI3K-induced Akt phosphorylation at Ser 473 in HGF-stimulated nude CD1 mouse at 0.3 mg/kg, po measured after 4 hrs by quantitative electrochemiluminescence immunoassay; format: functional; settings: CD1, 4 h
Mus musculus [22] = experiment: Inhibition of PI3K-induced Akt phosphorylation at Ser 473 in HGF-stimulated nude CD1 mouse at 1 mg/kg, po measured after 4 hrs by quantitative electrochemiluminescence immunoassay; format: functional; settings: CD1, 4 h
Mus musculus [23] = experiment: Inhibition of PI3K-induced Akt phosphorylation at Ser 473 in HGF-stimulated nude CD1 mouse at 3 mg/kg, po measured after 4 hrs by quantitative electrochemiluminescence immunoassay; format: functional; settings: CD1, 4 h
[24] = Plasma concentration in nude CD1 mouse at 0.3 mg/kg, po measured after 4 hrs; format: ADME, organism-based; design: dose 0.3 mg/kg, route oral
[25] = Plasma concentration in nude CD1 mouse at 1 mg/kg, po measured after 4 hrs; format: ADME, organism-based; design: dose 1 mg/kg, route oral
[26] = Plasma concentration in nude CD1 mouse at 3 mg/kg, po measured after 4 hrs; format: ADME, organism-based; design: dose 3 mg/kg, route oral
[27] = target: DNA-dependent protein kinase catalytic subunit (Homo sapiens, UniProt P78527)
Description: Inhibition of DNA-PK using fluorescein-p53 peptide as substrate after 1 hr by TR-FRET enzyme assay

T1 sequence (P42336 whole entry, canonical isoform): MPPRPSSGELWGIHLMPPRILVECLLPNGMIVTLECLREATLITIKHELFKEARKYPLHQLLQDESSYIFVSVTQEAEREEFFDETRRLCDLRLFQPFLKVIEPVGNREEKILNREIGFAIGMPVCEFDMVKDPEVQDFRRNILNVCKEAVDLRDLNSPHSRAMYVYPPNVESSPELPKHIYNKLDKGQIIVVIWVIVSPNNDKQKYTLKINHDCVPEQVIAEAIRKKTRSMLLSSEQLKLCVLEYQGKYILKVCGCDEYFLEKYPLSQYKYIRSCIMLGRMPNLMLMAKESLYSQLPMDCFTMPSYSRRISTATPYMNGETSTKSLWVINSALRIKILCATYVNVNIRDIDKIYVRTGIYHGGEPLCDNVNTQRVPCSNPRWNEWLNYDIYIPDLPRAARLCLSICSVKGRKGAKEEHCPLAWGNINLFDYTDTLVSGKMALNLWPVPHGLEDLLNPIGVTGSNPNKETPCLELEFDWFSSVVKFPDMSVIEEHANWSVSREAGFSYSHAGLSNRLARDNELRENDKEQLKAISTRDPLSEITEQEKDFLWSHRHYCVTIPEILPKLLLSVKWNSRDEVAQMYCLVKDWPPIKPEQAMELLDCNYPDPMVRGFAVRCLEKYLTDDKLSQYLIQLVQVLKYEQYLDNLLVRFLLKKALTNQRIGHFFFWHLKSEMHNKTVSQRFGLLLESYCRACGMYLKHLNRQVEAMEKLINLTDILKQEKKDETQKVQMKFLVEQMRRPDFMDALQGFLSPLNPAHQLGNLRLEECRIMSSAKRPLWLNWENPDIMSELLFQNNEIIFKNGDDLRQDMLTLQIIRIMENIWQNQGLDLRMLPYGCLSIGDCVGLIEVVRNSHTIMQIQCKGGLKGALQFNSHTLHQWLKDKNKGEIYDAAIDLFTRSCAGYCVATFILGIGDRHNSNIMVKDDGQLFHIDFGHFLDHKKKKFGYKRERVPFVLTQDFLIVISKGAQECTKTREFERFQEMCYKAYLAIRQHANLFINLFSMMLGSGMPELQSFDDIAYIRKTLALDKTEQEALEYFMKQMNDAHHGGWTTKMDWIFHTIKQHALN

## O=S(=O)(Nc1cc(-c2ccc3ncccc3c2)cnc1Cl)c1ccc(F)cc1
[1]
  Ki: 2.1 nM
[2]
  IC50: 377 nM

## O=S(=O)(Nc1cc(-c2cc3cccnc3cn2)cnc1Cl)c1ccc(F)cc1
[1]
  Ki: 200 nM
[2]
  IC50: > 10000 nM

## O=S(=O)(Nc1cc(-c2cnc3ncccc3c2)cnc1Cl)c1ccc(F)cc1
[1]
  Ki: 856 nM

## O=S(=O)(Nc1cc(-c2ccc3nnccc3c2)cnc1Cl)c1ccc(F)cc1
[1]
  Ki: 38 nM
[2]
  IC50: 1920 nM

## COCCNc1ccnc2ccc(-c3cnc(Cl)c(NS(=O)(=O)c4ccc(F)cc4)c3)cc12
[1]
  Ki: 69 nM
[2]
  IC50: 1020 nM

## CN(C)c1ccnc2ccc(-c3cnc(Cl)c(NS(=O)(=O)c4ccc(F)cc4)c3)cc12
[1]
  Ki: 5.7 nM
[2]
  IC50: 223 nM

## O=S(=O)(Nc1cc(-c2ccc3nccc(N4CCC(O)CC4)c3c2)cnc1Cl)c1ccc(F)cc1
[1]
  Ki: 0.9 nM
[2]
  IC50: 150 nM

## O=S(=O)(Nc1cc(-c2ccc3nccc(N4CCN(Cc5ccccc5)CC4)c3c2)cnc1Cl)c1ccc(F)cc1
[1]
  Ki: 1 nM
[2]
  IC50: 136 nM

## O=S(=O)(Nc1cc(-c2ccc3nccc(N4CCN(Cc5ccncc5)CC4)c3c2)cnc1Cl)c1ccc(F)cc1
[3]
  IC50: 6.5 nM
[4]
  IC50: 15 nM
[5]
  IC50: 6 nM
[1]
  IC50: 4.6 nM
  Ki: 0.9 nM
[2]
  IC50: 18 nM
Rattus norvegicus
  QH: 0.6%
In vitro [6]
  microsomal CLint at 0.5 h, 1 µM: 247 µL/min/mg
In vitro [7]
  microsomal CLint at 0.5 h, 1 µM: > 399 µL/min/mg

## O=S(=O)(Nc1cc(-c2ccc3nccc(-c4ccccc4)c3c2)cnc1Cl)c1ccc(F)cc1
[1]
  Ki: 1.3 nM
[2]
  IC50: 127 nM

## O=S(=O)(Nc1cc(-c2ccc3nccc(-c4cccnc4)c3c2)cnc1Cl)c1ccc(F)cc1
[3]
  IC50: 7.7 nM
[8]
  bioavailability: 73%
[9]
  AUC: 5630 ng·h/mL
[4]
  IC50: 10 nM
[5]
  IC50: 5.9 nM
[10]
  IC50: 2.9 nM
Rattus norvegicus
  QH: 0.6%
In vivo [11]
  clearance: 2.17 mL/min/kg
In vivo [12]
  Vd: 0.81 L/kg
In vivo [13]
  MRT: 6.3 h
In vivo [14]
  concentration at 3 h: 210 ng/mL
In vivo [15]
  concentration at 3 h: 899 ng/mL
In vivo [16]
  concentration at 3 h: 2330 ng/mL
In vitro [6]
  microsomal CLint at 0.5 h, 1 µM: < 14 µL/min/mg
In vitro [7]
  microsomal CLint at 0.5 h, 1 µM: 33 µL/min/mg
Mus musculus [17]
  inhibition in vivo at 0.3 mg/kg: 70%
Mus musculus [18]
  inhibition in vivo at 1 mg/kg: 97%
Mus musculus [19]
  inhibition in vivo at 3 mg/kg: 99%

## O=S(=O)(Nc1cc(-c2ccc3nccc(-c4ccncc4)c3c2)cnc1Cl)c1ccc(F)cc1
[3]
  IC50: 13 nM
[8]
  bioavailability: 70%
[9]
  AUC: 14700 ng·h/mL
[4]
  IC50: 15 nM
[5]
  IC50: 6 nM
[20]
  IC50: 0.41 nM
[10]
  IC50: 5.3 nM
Rattus norvegicus
  QH: 0.6%
In vivo [11]
  clearance: 0.667 mL/min/kg
In vivo [12]
  Vd: 0.52 L/kg
In vivo [13]
  MRT: 15 h
In vivo [14]
  concentration at 3 h: 326 ng/mL
In vivo [15]
  concentration at 3 h: 950 ng/mL
In vivo [16]
  concentration at 3 h: 2470 ng/mL
In vitro [6]
  microsomal CLint at 0.5 h, 1 µM: < 14 µL/min/mg
In vitro [7]
  microsomal CLint at 0.5 h, 1 µM: 20 µL/min/mg
Mus musculus [17]
  inhibition in vivo at 0.3 mg/kg: 89%
Mus musculus [18]
  inhibition in vivo at 1 mg/kg: 98%
Mus musculus [19]
  inhibition in vivo at 3 mg/kg: > 99%

## CN(C)c1ccc(-c2ccnc3ccc(-c4cnc(Cl)c(NS(=O)(=O)c5ccc(F)cc5)c4)cc23)cc1
[1]
  Ki: 0.7 nM
[2]
  IC50: 61 nM

## O=S(=O)(Nc1cc(-c2ccc3ncc(NCC4CCCNC4)nc3c2)cnc1Cl)c1ccc(F)cc1 (centres undefined)
[1]
  Ki: 3.3 nM
[2]
  IC50: 2710 nM

## O=S(=O)(Nc1cc(-c2ccc3ncc(NCCN4CCOCC4)nc3c2)cnc1Cl)c1ccc(F)cc1
[3]
  IC50: 16 nM
[4]
  IC50: 9.8 nM
[5]
  IC50: 6 nM

## O=S(=O)(Nc1cc(-c2ccc3ncc(N4CCCCC4)nc3c2)cnc1Cl)c1ccc(F)cc1
[1]
  Ki: 0.9 nM
[2]
  IC50: 128 nM

## O=S(=O)(Nc1cc(-c2ccc3ncc(N4CCC(F)(F)CC4)nc3c2)cnc1Cl)c1ccc(F)cc1
[1]
  Ki: 0.6 nM
[2]
  IC50: 189 nM

## O=S(=O)(Nc1cc(-c2ccc3ncc(N4C[C@H]5CC[C@H](CC5)C4)nc3c2)cnc1Cl)c1ccc(F)cc1
[1]
  Ki: 1 nM
[2]
  IC50: 247 nM

## CC(C)N1CCN(c2cnc3ccc(-c4cnc(Cl)c(NS(=O)(=O)c5ccc(F)cc5)c4)cc3n2)CC1
[3]
  IC50: 13 nM
[8]
  bioavailability: 72%
[9]
  AUC: 10800 ng·h/mL
Mus musculus [21]
  inhibition in vivo at 0.3 mg/kg: 50%
Mus musculus [22]
  inhibition in vivo at 1 mg/kg: 86%
Mus musculus [23]
  inhibition in vivo at 3 mg/kg: 95%
[24]
  concentration at 4 h: 155 ng/mL
[25]
  concentration at 4 h: 417 ng/mL
[26]
  concentration at 4 h: 1790 ng/mL
[5]
  IC50: 5.6 nM
[20]
  IC50: 37 nM
[1]
  Ki: 0.8 nM
[2]
  IC50: 17 nM
Rattus norvegicus
  QH: 0.6%
In vivo [11]
  clearance: 1.33 mL/min/kg
In vivo [12]
  Vd: 0.4 L/kg
In vivo [13]
  MRT: 5.4 h
In vitro [6]
  microsomal CLint at 0.5 h, 1 µM: 31 µL/min/mg
In vitro [7]
  microsomal CLint at 0.5 h, 1 µM: 32 µL/min/mg

## O=S(=O)(Nc1cc(-c2ccc3ncc(N4CCOCC4)nc3c2)cnc1Cl)c1ccc(F)cc1
[3]
  IC50: 2.4 nM
[8]
  bioavailability: 88%
[9]
  AUC: 29600 ng·h/mL
Mus musculus [21]
  inhibition in vivo at 0.3 mg/kg: 55%
Mus musculus [22]
  inhibition in vivo at 1 mg/kg: 86%
Mus musculus [23]
  inhibition in vivo at 3 mg/kg: 97%
[24]
  concentration at 4 h: 448 ng/mL
[25]
  concentration at 4 h: 1730 ng/mL
[26]
  concentration at 4 h: 4470 ng/mL
[5]
  IC50: 4.4 nM
[20]
  IC50: 5 nM
[10]
  IC50: 5 nM
[27]
  IC50: 3.4 nM
Rattus norvegicus
  QH: 0.6%
In vivo [11]
  clearance: 0.333 mL/min/kg
In vivo [12]
  Vd: 0.19 L/kg
In vivo [13]
  MRT: 9 h
In vitro [6]
  microsomal CLint at 0.5 h, 1 µM: < 14 µL/min/mg
In vitro [7]
  microsomal CLint at 0.5 h, 1 µM: 16 µL/min/mg
